Reference: US4595694A, “Azulene derivatives, processes of their synthesis and their uses as anti-ulcerative and anti-inflammatory agents” (Kotobuki Seiyaku Co. Ltd., priority 1983, dated 1986)
Counter-ions that a name gives are not always drawn. One block for each compound: values may come before it.

Assays:
Shay's rat = experiment: Anti-ulcerative activity, pylorus ligation (Shay's rat); format: in vivo; conditions: perorally, 16 hours after ligation; for inhibition in vivo at 100 mg/kg / inhibition in vivo at 500 mg/kg: Rattus norvegicus, po, 16 h, read-out: % inhibition (ulcer index)
Experimental: In order to ascertain the anti-ulcerative activity […], Shay's rat (Gastro enterology 26, P. 906) is selected. Rats are fasted for 48 hours and pylorus ligation is carried out under light anesthesia. Drug is given perorally. 16 hours after ligation the animals are sacrificed and the stomach is removed. The induced erosion is measured in area and scored as ulcer index (U.I.). The data are expressed as % inhibition to the control value from the equation described below.

pepsin = biological target: T1, pepsin (Sus scrofa, UniProt P00791); experiment: Anti-peptic activity in vitro (bovine serum albumin as substrate); format: biochemical; conditions: for IC50: obtained graphically, read-out: ID50 (50% inhibiting dose) (converted); for inhibition at 125 µg/mL: sample concentration 0.125 mg/ml; for inhibition at 250 µg/mL: sample concentration 0.250 mg/ml; for inhibition at 500 µg/mL: sample concentration 0.500 mg/ml; for inhibition at 1000 µg/mL: sample concentration 1.000 mg/ml
T1 construct: purchased
Experimental: Anti-peptic activity of the compounds is tested in vitro according to V. K. Thiemer (Arznei-Forsch 22 (6), PP. 1086, 1972), using bovine serum albumin as a substrate and commercially available pepsin.
Also ID50 (50% inhibiting dose) is obtained graphically.

[1] = Stability on storage (% residue of the original compound); format: physicochemical; conditions: for remaining at 96 h: 40° C.; for remaining at 192 h: 60° C.; for remaining at 240 h: 70° C.; for remaining at 288 h: 80° C.
Source text: The data are expressed in % residue of the original compounds after the storage in each condition.

[2] = Acute toxicity (Litchfield & Wilcoxon method); conditions: rat, in vivo
Experimental: The acute toxicity of Compound 3 is determined by Litchfield & Wilcoxon method using SD rats.

T1 sequence (P00791 60-385): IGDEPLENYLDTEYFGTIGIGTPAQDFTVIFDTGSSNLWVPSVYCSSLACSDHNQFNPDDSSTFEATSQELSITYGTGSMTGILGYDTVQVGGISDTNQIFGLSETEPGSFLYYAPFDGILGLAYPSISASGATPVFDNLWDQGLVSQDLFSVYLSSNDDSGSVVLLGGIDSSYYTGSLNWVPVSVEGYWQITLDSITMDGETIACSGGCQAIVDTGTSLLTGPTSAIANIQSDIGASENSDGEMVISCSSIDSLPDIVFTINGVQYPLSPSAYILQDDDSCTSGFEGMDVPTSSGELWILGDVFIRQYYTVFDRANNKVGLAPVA

Structure (SMILES): CCCCc1cc(S(=O)(=O)O)c2cc(C(C)C)ccc(OC)c1-2 [compound 33, Sodium 7-isopropyl-4-methoxy-3-butyl-azulene sulfonate]
inhibition in vivo at 100 mg/kg (Shay's rat; 100 mg/kg): 64.8%

Structure (SMILES): COc1ccc(C(C)C)cc2c(S(=O)(=O)O)cc(C)c1-2 [compound 30, Sodium 7-isopropyl-4-methoxy-3-methyl-azulene sulfonate]
inhibition in vivo at 100 mg/kg (Shay's rat; 100 mg/kg): 58.7%

Structure (SMILES): CCCCCCc1cc(S(=O)(=O)O)c2ccccc(OC)c1-2 [compound 29, Sodium 4-methoxy-3-hexyl-azulene sulfonate]
inhibition in vivo at 100 mg/kg (Shay's rat; 100 mg/kg): 38%

Structure (SMILES): CCc1cc(S(=O)(=O)O)c2cc(C(C)C)cccc1-2 [compound 38, 7-isopropyl-3-ethyl-azulene sulfonic acid aluminum salt]
inhibition in vivo at 100 mg/kg (Shay's rat; 100 mg/kg): 40.3%

Structure (SMILES): CC(C)=CCC[C@H](C)c1cc(S(=O)(=O)O)c2cccccc1-2 [compound 8, Sodium 3-(1'-S-1',5'-dimethyl-4'-hexene)-azulene sulfonate]
inhibition in vivo at 500 mg/kg (Shay's rat): 69.9%

Structure (SMILES): CCCc1cc(S(=O)(=O)O)c2cc(C(C)C)ccc(OC)c1-2 [compound 32, Sodium 7-isopropyl-4-methoxy-3-propyl-azulene sulfonate]
inhibition in vivo at 100 mg/kg (Shay's rat; 100 mg/kg): 44.1%

Structure (SMILES): CC(C)=CCC[C@@H](C)c1cc(S(=O)(=O)O)c2cc(C(C)C)cccc1-2 [compound 21, Sodium 7-isopropyl-3-(1'-R-1',5'-dimethyl-4'-hexene)-azulene sulfonate]
inhibition in vivo at 100 mg/kg (Shay's rat; 100 mg/kg): 14.5%

Structure (SMILES): CCCCCc1cc(S(=O)(=O)O)c2cc(C(C)C)cccc1-2 [compound 19, Sodium 7-isopropyl-3-n-pentyl-azulene sulfonate]
inhibition in vivo at 100 mg/kg (Shay's rat; 100 mg/kg): -56.3%

Structure (SMILES): CCCCc1cc(S(=O)(=O)O)c2cccccc1-2 [compound 14, Sodium 3-n-butyl-azulene sulfonate]
inhibition in vivo at 100 mg/kg (Shay's rat; 100 mg/kg): 32.7%

Structure (SMILES): CCc1cc(S(=O)(=O)O)c2cccccc1-2 [compound 2, Sodium 3-ethyl-azulene sulfonate]
inhibition in vivo at 500 mg/kg (Shay's rat): 100%

Structure (SMILES): CCCCc1cc(S(=O)(=O)O)c2cc(C(C)C)cccc1-2 [compound 18, Sodium 7-isopropyl-3-n-butyl-azulene sulfonate]
inhibition in vivo at 100 mg/kg (Shay's rat; 100 mg/kg): 17.2%

Structure (SMILES): CCc1cc(S(=O)(=O)O)c2cc(C(C)C)ccc(OC)c1-2 [compound 31, Sodium 7-isopropyl-4-methoxy-3-ethyl-azulene sulfonate]
inhibition in vivo at 100 mg/kg (Shay's rat; 100 mg/kg): 67.6%

Structure (SMILES): CCCCCc1cc(S(=O)(=O)O)c2ccccc(OC)c1-2 [compound 28, Sodium 4-methoxy-3-pentyl-azulene sulfonate]
inhibition in vivo at 100 mg/kg (Shay's rat; 100 mg/kg): 42%

Structure (SMILES): Cc1cc(S(=O)(=O)O)c2cccccc1-2 [compound 35, 3-methyl-azulene sulfonic acid aluminum salt]
inhibition in vivo at 100 mg/kg (Shay's rat; 100 mg/kg): 16.5%

Structure (SMILES): CCCCc1cc(S(=O)(=O)O)c2ccccc(OC)c1-2 [compound 27, Sodium 4-methoxy-3-butyl-azulene sulfonate]
inhibition in vivo at 100 mg/kg (Shay's rat; 100 mg/kg): 66.3%

Structure (SMILES): CC(C)=CCCC(C)c1cc(S(=O)(=O)O)c2cc(C(C)C)cccc1-2 (centres unmarked) [compound 20, Sodium 7-isopropyl-3-(1'-R, S-1',5'-dimethyl-4'-hexene)-azulene sulfonate]
inhibition in vivo at 100 mg/kg (Shay's rat; 100 mg/kg): 43.8%

Structure (SMILES): CCc1cc(S(=O)(=O)O)c2cccccc1-2 [compound 36, 3-ethyl-azulene sulfonic acid aluminum salt]
inhibition in vivo at 100 mg/kg (Shay's rat; 100 mg/kg): 28.6%

IC50 (pepsin): 1290 µM
inhibition at 125 µg/mL (pepsin): 14.6%
inhibition at 250 µg/mL (pepsin): 50.4%
inhibition at 500 µg/mL (pepsin): 58.6%
inhibition at 1000 µg/mL (pepsin): 75.1%
remaining at 96 h [1]: 100%
remaining at 192 h [1]: 51.3%
remaining at 240 h [1]: 9.3%
remaining at 288 h [1]: 1.5%
Structure (SMILES): Cc1cc(S(=O)(=O)O)c2c(C)ccc(C(C)C)cc1-2 [GAS, sodium guaiazulene-3-sulfonate, reference compound]

Structure (SMILES): CCCc1cc(S(=O)(=O)O)c2ccccc(OC)c1-2 [compound 26, Sodium 4-methoxy-3-propyl-azulene sulfonate]
inhibition in vivo at 100 mg/kg (Shay's rat; 100 mg/kg): 75.6%

Structure (SMILES): CCc1cc(S(=O)(=O)O)c2cc(C(C)C)cccc1-2 [compound 3, Sodium 3-ethyl-7-isopropyl-azulene sulfonate]
inhibition in vivo at 500 mg/kg (Shay's rat): 100%
IC50 (pepsin): 1070 µM
inhibition at 125 µg/mL (pepsin): 17.3%
inhibition at 250 µg/mL (pepsin): 47.6%
inhibition at 500 µg/mL (pepsin): 63.6%
inhibition at 1000 µg/mL (pepsin): 97.1%
remaining at 96 h [1]: 100%
remaining at 192 h [1]: 100%
remaining at 240 h [1]: 100%
remaining at 288 h [1]: 100%
stability, in words ([1]; compared with sodium guaiazulene sulfonate): greatly improved
LD50 ([2]; ip, I.P., female, 95% confidence limits): 180 mg/kg
LD50 ([2]; ip, I.P., male, 95% confidence limits): 165 mg/kg
LD50 ([2]; iv, I.V., female, 95% confidence limits): 153 mg/kg
LD50 ([2]; iv, I.V., male): 130 mg/kg
LD50 ([2]; po, P.O., female, 95% confidence limits): 1200 mg/kg
LD50 ([2]; po, P.O., male, 95% confidence limits): 1000 mg/kg

Structure (SMILES): Cc1cc(S(=O)(=O)O)c2cc(C(C)C)cccc1-2 [compound 37, 7-isopropyl-3-methyl-azulene sulfonic acid aluminum salt]
inhibition in vivo at 100 mg/kg (Shay's rat; 100 mg/kg): 58.4%

Structure (SMILES): CCc1cc(S(=O)(=O)O)c2ccccc(OC)c1-2 [compound 25, Sodium 4-methoxy-3-ethyl-azulene sulfonate]
inhibition in vivo at 100 mg/kg (Shay's rat; 100 mg/kg): 75.6%

Structure (SMILES): CC(C)c1cccc2c(Cc3ccccc3)cc(S(=O)(=O)O)c-2c1 [compound 23, Sodium 7-isopropyl-3-benzyl-azulene sulfonate]
inhibition in vivo at 100 mg/kg (Shay's rat; 100 mg/kg): 9.8%

Structure (SMILES): Cc1cc(S(=O)(=O)O)c2cccccc1-2 [compound 1, Sodium 3-methyl-azulene sulfonate]
inhibition in vivo at 500 mg/kg (Shay's rat): 52.4%

Structure (SMILES): CCCCCc1cc(S(=O)(=O)O)c2cc(C(C)C)ccc(OC)c1-2 [compound 34, Sodium 7-isopropyl-4-methoxy-3-pentyl-azulene sulfonate]
inhibition in vivo at 100 mg/kg (Shay's rat; 100 mg/kg): -14.6%

Structure (SMILES): Cc1cc(S(=O)(=O)O)c2cc(C(C)C)cccc1-2 [compound 13, Sodium 3-methyl-7-isopropyl-azulene sulfonate]
% inhibition (ulcer index) (Shay's rat; 100 mg/kg): 69.7%

Structure (SMILES): CC(C)c1cccc2c(S(=O)(=O)O)ccc-2c1 [compound 16, Sodium 5-isopropyl-azulene sulfonate]
inhibition in vivo at 100 mg/kg (Shay's rat; 100 mg/kg): 62%

IC50 (pepsin): 3790 µM
inhibition at 125 µg/mL (pepsin): 0.26%
inhibition at 250 µg/mL (pepsin): 3.57%
inhibition at 500 µg/mL (pepsin): 24.5%
inhibition at 1000 µg/mL (pepsin): 50.4%
Structure (SMILES): CC(C)=CCCC(C)c1cc(S(=O)(=O)O)c2cccccc1-2 (centres unmarked) [compound 5, Sodium 3-(1'-R, S-1',5'-dimethyl-4'-hexene) azulene sulfonate]
inhibition in vivo at 500 mg/kg (Shay's rat): 95.5%

Structure (SMILES): CCCc1cc(S(=O)(=O)O)c2cc(C(C)C)cccc1-2 [compound 17, Sodium 7-isopropyl-3-n-propyl-azulene sulfonate]
inhibition in vivo at 100 mg/kg (Shay's rat; 100 mg/kg): 31.2%

IC50 (pepsin): 1830 µM
inhibition at 125 µg/mL (pepsin): 17.3%
inhibition at 250 µg/mL (pepsin): 28.9%
inhibition at 500 µg/mL (pepsin): 65.7%
inhibition at 1000 µg/mL (pepsin): 55.8%
Structure (SMILES): CCc1cc(S(=O)(=O)O)c2ccc(C(C)C)ccc1-2 [compound 4, Sodium 3-ethyl-6-isopropyl-azulene sulfonate]
inhibition in vivo at 500 mg/kg (Shay's rat): 100%

Structure (SMILES): CC(C)=CCC[C@H](C)c1cc(S(=O)(=O)O)c2cc(C(C)C)cccc1-2 [compound 22, Sodium 7-isopropyl-3-(1'-S-1',5'-dimethyl-4'-hexene)-azulene sulfonate]
inhibition in vivo at 100 mg/kg (Shay's rat; 100 mg/kg): -19.5%

Structure (SMILES): CCCCCc1cc(S(=O)(=O)O)c2cccccc1-2 [compound 15, Sodium 3-n-pentyl-azulene sulfonate]
inhibition in vivo at 100 mg/kg (Shay's rat; 100 mg/kg): 64.3%

Structure (SMILES): CCCc1cc(S(=O)(=O)O)c2cccccc1-2 [compound 12, Sodium 3-propyl-azulene sulfonate]
inhibition in vivo at 100 mg/kg (Shay's rat; 100 mg/kg): 78.5%

Structure (SMILES): COc1ccccc2c(S(=O)(=O)O)cc(C)c1-2 [compound 24, Sodium 4-methoxy-3-methyl-azulene sulfonate]
inhibition in vivo at 100 mg/kg (Shay's rat; 100 mg/kg): 63.4%
